Experiment [1] deals with T1, Protein arginine N-methyltransferase 7 (Homo sapiens) (UniProt Q9NVM4).
T1 sequence (whole entry): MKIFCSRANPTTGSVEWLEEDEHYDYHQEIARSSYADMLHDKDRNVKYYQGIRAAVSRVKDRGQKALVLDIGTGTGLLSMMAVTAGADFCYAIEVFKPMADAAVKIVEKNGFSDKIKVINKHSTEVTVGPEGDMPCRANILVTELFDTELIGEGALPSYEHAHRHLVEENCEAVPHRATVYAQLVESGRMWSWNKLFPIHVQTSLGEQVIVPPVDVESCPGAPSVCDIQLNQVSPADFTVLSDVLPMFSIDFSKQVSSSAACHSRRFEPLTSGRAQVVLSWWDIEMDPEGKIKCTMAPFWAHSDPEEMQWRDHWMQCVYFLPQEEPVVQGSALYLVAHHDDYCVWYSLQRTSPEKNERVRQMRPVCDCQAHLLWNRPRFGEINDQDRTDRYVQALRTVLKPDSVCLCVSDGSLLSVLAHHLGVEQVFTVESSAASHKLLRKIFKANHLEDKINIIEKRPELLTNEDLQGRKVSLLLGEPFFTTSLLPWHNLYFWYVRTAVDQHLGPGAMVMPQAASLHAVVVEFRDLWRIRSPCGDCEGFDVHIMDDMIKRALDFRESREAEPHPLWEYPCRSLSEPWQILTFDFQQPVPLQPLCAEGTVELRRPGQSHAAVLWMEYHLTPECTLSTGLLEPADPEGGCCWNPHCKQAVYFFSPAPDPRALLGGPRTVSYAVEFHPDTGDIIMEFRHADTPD
The experiment in a line: Inhibition of PRMT7 (unknown origin) using biotin-labeled histone substrate assessed as residual activity at 50 uM in presence of [3H-Me]SAM by scintillation proximity assay relative to control. A general note: In a scintillation proximity assay essentially only radioactivity close to the scintillant gives light.

The target in experiment [2] is T2, Histone-lysine N-methyltransferase NSD3 (Homo sapiens) (UniProt Q9BZ95).
T2 sequence (whole entry): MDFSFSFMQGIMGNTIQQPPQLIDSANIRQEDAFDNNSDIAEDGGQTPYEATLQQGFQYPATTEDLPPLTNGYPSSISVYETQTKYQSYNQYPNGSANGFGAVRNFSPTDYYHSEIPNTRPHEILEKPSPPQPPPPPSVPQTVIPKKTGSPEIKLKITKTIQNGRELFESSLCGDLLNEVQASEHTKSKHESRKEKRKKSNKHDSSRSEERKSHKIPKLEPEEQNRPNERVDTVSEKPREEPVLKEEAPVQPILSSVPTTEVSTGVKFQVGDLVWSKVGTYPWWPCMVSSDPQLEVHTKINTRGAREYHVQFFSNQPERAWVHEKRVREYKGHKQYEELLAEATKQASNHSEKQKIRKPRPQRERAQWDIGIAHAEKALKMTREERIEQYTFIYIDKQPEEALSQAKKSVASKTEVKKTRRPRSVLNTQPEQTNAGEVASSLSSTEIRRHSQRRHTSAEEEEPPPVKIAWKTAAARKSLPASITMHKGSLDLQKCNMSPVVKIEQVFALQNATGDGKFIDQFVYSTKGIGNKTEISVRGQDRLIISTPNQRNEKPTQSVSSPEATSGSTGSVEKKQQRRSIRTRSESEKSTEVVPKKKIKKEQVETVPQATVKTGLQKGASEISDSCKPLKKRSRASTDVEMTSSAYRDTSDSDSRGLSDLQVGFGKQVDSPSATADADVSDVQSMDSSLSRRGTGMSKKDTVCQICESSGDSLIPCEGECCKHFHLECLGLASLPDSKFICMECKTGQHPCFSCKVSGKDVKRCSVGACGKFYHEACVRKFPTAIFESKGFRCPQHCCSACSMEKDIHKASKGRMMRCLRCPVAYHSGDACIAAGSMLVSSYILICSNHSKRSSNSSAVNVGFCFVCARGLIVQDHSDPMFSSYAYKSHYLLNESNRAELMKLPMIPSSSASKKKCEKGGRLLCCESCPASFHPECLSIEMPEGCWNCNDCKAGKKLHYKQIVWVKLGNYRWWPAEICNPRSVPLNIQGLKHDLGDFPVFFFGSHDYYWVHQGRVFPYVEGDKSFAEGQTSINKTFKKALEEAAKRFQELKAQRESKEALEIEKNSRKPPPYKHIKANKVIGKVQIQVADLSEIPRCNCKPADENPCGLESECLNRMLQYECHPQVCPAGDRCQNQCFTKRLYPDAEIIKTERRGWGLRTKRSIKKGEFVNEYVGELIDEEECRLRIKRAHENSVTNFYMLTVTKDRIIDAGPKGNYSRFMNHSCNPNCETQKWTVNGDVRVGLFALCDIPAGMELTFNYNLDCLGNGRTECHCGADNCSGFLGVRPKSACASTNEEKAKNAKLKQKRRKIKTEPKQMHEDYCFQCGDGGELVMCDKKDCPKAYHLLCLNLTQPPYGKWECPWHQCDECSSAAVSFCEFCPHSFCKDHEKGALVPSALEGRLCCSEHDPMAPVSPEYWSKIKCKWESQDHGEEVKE
Description: Inhibition of NSD3 (unknown origin) using biotin-labeled histone substrate assessed as residual activity at 50 uM in presence of [3H-Me]SAM by scintillation proximity assay relative to control.

Experiment [3] has as its target T3, N-lysine methyltransferase KMT5A (Homo sapiens) (UniProt Q9NQR1).
T3 sequence (whole entry): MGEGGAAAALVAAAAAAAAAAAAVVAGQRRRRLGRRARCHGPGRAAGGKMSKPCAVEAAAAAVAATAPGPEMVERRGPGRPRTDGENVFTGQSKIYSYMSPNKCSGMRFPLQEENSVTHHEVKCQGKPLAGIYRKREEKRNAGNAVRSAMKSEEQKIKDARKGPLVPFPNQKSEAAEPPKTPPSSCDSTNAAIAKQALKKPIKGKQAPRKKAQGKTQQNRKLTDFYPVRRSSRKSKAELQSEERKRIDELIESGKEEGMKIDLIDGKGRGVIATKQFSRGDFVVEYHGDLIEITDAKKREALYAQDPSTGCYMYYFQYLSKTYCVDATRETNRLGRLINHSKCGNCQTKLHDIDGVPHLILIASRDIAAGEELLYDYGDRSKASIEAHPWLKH
The experiment in a line: Inhibition of SETD8 (unknown origin) using biotin-labeled histone H4 (1 to 24 residues) as substrate assessed as residual activity at 50 uM in presence of [3H-Me]SAM by scintillation proximity assay relative to control.

Experiment [4] has as its target Histone-lysine N-methyltransferase SETDB1 (Homo sapiens) (UniProt Q15047). Description: Inhibition of SETDB1 (unknown origin) using biotin-labeled histone substrate assessed as residual activity at 50 uM in presence of [3H-Me]SAM by scintillation proximity assay relative to control.
For experiment [5], the target named is Histone-lysine N-methyltransferase, H3 lysine-79 specific (Homo sapiens) (UniProt Q8TEK3). Description: Inhibition of DOT1L (unknown origin) using biotin-labeled histone substrate assessed as residual activity at 50 uM in presence of [3H-Me]SAM by scintillation proximity assay relative to control.
Chain of Histone-lysine N-methyltransferase, H3 lysine-79 specific (Homo sapiens) (Q8TEK3 whole entry, looked up): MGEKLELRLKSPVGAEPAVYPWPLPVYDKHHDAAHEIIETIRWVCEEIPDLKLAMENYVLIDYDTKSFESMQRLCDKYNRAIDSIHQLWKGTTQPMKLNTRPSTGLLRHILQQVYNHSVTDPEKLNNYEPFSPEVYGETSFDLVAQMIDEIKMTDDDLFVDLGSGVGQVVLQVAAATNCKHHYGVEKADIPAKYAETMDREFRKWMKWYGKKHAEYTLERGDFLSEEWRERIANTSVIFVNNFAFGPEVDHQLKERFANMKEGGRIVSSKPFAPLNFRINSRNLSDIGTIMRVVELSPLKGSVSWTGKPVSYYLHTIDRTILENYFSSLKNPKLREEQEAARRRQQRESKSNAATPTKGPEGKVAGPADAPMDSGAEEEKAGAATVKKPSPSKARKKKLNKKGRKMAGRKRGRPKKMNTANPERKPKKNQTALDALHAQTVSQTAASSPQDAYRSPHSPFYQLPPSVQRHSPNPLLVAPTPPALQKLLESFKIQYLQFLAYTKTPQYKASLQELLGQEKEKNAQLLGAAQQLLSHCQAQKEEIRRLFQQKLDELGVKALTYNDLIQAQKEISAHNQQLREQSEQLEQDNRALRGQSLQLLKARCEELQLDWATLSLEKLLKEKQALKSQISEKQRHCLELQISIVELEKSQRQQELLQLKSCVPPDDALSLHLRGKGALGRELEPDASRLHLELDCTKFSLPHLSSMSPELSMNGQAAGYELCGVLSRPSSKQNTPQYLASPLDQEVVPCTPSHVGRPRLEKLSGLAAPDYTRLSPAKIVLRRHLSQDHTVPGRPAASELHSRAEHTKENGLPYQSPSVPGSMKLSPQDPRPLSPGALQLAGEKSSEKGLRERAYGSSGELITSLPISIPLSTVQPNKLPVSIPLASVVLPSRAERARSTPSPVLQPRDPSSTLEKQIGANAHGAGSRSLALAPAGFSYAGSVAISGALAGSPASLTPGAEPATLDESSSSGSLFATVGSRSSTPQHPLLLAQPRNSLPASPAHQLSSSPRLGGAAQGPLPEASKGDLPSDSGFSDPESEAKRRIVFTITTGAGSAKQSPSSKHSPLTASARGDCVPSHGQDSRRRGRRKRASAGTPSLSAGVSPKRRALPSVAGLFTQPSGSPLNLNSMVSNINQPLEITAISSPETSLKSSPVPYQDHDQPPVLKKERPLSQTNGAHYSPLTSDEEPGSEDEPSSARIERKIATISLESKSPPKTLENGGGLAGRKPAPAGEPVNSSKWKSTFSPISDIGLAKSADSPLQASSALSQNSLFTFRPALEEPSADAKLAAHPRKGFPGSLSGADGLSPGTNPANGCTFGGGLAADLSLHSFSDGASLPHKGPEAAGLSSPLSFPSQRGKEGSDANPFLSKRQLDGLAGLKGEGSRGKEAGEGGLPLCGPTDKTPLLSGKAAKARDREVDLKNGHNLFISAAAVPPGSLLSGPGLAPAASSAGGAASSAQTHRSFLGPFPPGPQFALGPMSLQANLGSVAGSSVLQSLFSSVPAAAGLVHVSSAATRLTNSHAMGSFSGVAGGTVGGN

Regarding `O=C(c1cccc(Br)c1)N1C[C@H]2CCCN[C@H]2C1`, the Activity in experiment [1] is 104%; in experiment [2], 100%; in experiment [3] it was 90%; in experiment [4] it was 111%; in experiment [5] it was 89%.
For `O=C(c1cccc(Br)c1)N1CC[C@@H]2[C@@H](CC3CCCCN32)C1` (stereo not given in full) the same measures were 99%, 98%, 104%, 97% and 105%.

The values above are taken from ChEMBL document CHEMBL4477270, “Design, synthesis, and protein methyltransferase activity of a unique set of constrained amine containing compounds” (Bioorg Med Chem Lett, 2016).
